From patent US7879795B2, “Enhancement of tigecycline potency using efflux pump inhibitors” (Mpex Pharmaceuticals, Inc., priority 2004, dated 2011)

Experiments:
[1] = Rat serum pharmacokinetics after 2-hour IV infusion; type: in vivo; conditions: serum, 2-hour IV infusion, total dose 10 mg/kg, two-compartment model
Procedure: Rat serum pharmacokinetics of compounds 1, 3, 7, and 21 was evaluated after 2-hour IV infusion of 1 mg/ml EPI solution in 0.9% saline. Total infused dose was 10 mg/kg. FIG. 12 depicts the serum concentrations as a function of time. A two-compartment model was used to fit the data and calculate PK parameters.

[2] = tested on: P. aeruginosa overexpressing (strain PAM1723) or lacking (PAM1626) efflux pumps; assay: Stability in P. aeruginosa cultures; type: in vitro ADME; conditions: 50 μg/ml, PAM1723 and PAM1626
Procedure: Overnight cultures of two different strains of P. aeruginosa overexpressing (strain PAM1723) or lacking (PAM1626) efflux pumps were incubated with compounds 1 or 3 at 50 μg/ml for various times. Compounds were extracted using 4% TCA and analysed by LC/MC/MC.

[3] = tested on: strain 29A2 of P. aeruginosa overexpressing MexAB-OprM efflux pump; assay: Neutropenic mice lung model of PA infection; type: in vivo; conditions: for bacterial load in infected lungs, EPI with levofloxacin: levofloxacin 30 mg/kg SQ plus EPI IP
Procedure: Neutropenia was induced by cyclophosphamide 100 mg/kg IP on days 3 and 1 prior to infection. The strain 29A2 of P. aeruginosa overexpressing MexAB-OprM efflux pump was grown overnight in Mueller-Hinton Broth (MHB). The next day overnight culture was diluted in fresh MHB and was allowed to re-grow to ˜10^8 CFU/mL (OD600˜0.3). The culture was spun down, washed twice with phosphate buffered saline (PBS) and re-suspended in PBS to ˜4×10^7 CFU/mL. 50 μl of inoculum was used for intratracheal instillation of mice, which were anesthetized with sevoflourane/oxygen. […] Four mice from each treatment group were euthanized at various times after the start of treatment. The lungs were removed aseptically, homogenized in saline, and immediately plated to determine bacterial load (CFU/ml) in infected lungs. P. aeruginosa is plotted as a function of time in FIG. 20.

[4] = Stability in human serum; type: in vitro ADME; conditions: in words
Procedure: FIG. 9 compares the stability of compounds 1 and 3 in human serum as a function of time. Both compound 1 and compound 3 were stable after 18 hours of incubation with human serum.

[5] = tested on: P. aeruginosa strain PAM1723 overexpressing MexAB-OprM efflux pump; assay: Neutropenic mice thigh model of PA infection; type: in vivo; conditions: levofloxacin 30 mg/kg SQ, EPI 60 mg/kg IP, 2 hours post-infection
Procedure: Efficacy of the EPIs was evaluated in a Neutropenic Mice Thigh Model of P. aeruginosa Infection. Neutropenia was induced by cyclophosphamide 100 mg/kg IP on days 3 and 1 prior to infection. P. aeruginosa strain PAM1723 overexpressing MexAB-OprM efflux pump was grown overnight in Mueller-Hinton Broth (MHB). The next day, the overnight culture was diluted in fresh MHB and was allowed to re-grow to ˜10^8 CFU/mL (OD600˜0.3). The culture was spun down, washed twice with phosphate buffered saline (PBS) and re-suspend in PBS to ˜4×10^6 CFU/mL. Next, this culture was mixed 1:1 with 14% hog-gastric mucin in PBS to give a final inoculum of 2×10^6 CFU/mL. Infection was initiated with injection of 0.1 mL of inoculum (˜2×10^5 CFU/thigh) directly into both thighs of each mouse. Two mice from each treatment group were euthanized at various times after the start of treatment. The thighs were removed aseptically, homogenized in saline, and immediately plated to determine bacterial load (CFU/ml). Treatment was initiated 2 hours post infection.

[6] = tested on: P. aeruginosa strain PAM1032 overexpressing MexAB-OprM efflux pump; assay: Mouse sepsis model of PA infection (ED50 of levofloxacin); type: in vivo
Procedure: P. aeruginosa strain PAM1032 overexpressing MexAB-OprM efflux pump was grown overnight in Mueller-Hinton Broth (MHB). The next day, the overnight culture was diluted in fresh MHB and was allowed to re-grow to ˜10^8 CFU/mL (OD600˜0.3). The culture was spun down, washed twice with phosphate buffered saline (PBS) and re-suspend in PBS to ˜1.2×10^7 CFU/mL (OD=0.12). Next this culture was mixed 1:1 with 14% hog-gastric mucin in PBS to give a final inoculum of […].
The effect of the EPI at 50 mg/kg was determined according to the following experimental design: […]

[7] = Tissue levels after 2-hour IV infusion in rats; type: in vivo, rat; conditions: for concentration at 4 h: 2 h after end of 2-hour IV infusion; for concentration at 4 h / concentration at 2 h / concentration at 6 h: 10 mg/kg; for concentration at 2 h: end of 2-hour IV infusion; for tissue levels and clearance from tissues after 2-hour IV infusion: rat, in words; for concentration at 6 h: 4 h after end of 2-hour IV infusion
Procedure: Levels of EPIs in various tissues were evaluated after 2-hour IV infusion in rats. The rats received 10 mg/kg IV infusion through FVC. Animals were divided into 2 groups: group 1 was sacrificed immediately after the end of infusion and group 2, 2 h or 4 h after the end of infusion. Tissues from each animal were collected, homogenized and compounds were extracted. Tissues were mixed with saline at 1:1 ratio (v/w) in 12×75 mm polypropylene round bottom tubes. The mixtures were homogenized with a Polytron homogenizer (on ice, 3×10-15 seconds with 30 seconds intervals at the setting of 7). 50 μl of homogenized tissue were immediately transferred to an Eppendorf tube and 2-volumes of 4% TCA were added. After vortexing for 30 seconds, the tubes were centrifuged in a microfuge at top speed (13.2 k rpm) for 5 minutes. The supernatant was collected, and 45 μl of the supernatant was transferred to a glass LC/MS/MS vial (Kimble, 11 mm, 1.5 ml) for analysis, which allowed determination of tissue levels of EPIs at the end of the infusion and 2 h or 4 h later.

SMILES: NCCC[C@@H](N)C(=O)N[C@H](CCc1ccccc1)C(=O)Nc1cnc2ccccc2c1 [Compound 1, 2-(R),5-Diamino-pentanoic acid [3-phenyl-1-(R)-(quinolin-3-ylcarbamoyl)-propyl]-amide]
- clearance [1]: 24 mL/min/kg
- stability in cultures of tested bacterial strains [2]: stable
- growth of P. aeruginosa in infected lungs, EPI alone ([3]; EPI 100 mg/kg IP alone (0/100) versus no addition): No difference in growth
- bacterial load in infected lungs, EPI with levofloxacin [3]: significantly decreased bacterial load
- stability after 18 hours of incubation with human serum [4]: stable
- bacterial load in thighs, EPI with levofloxacin versus levofloxacin alone [5]: significantly enhanced activity of levofloxacin
- decrease of ED50 of levofloxacin ([6]; EPI at 50 mg/kg IP, survival at 24 hours): 4 fold
- 2 h/4 h Ratio ([7]; rat brain concentration): 1.34
- concentration at 4 h ([7]; rat brain): 130 ng/mL
- concentration at 2 h ([7]; rat brain): 180 ng/mL
- 2 h/4 h Ratio ([7]; rat heart concentration): 0.93
- concentration at 4 h ([7]; rat heart): 2340 ng/mL
- concentration at 2 h ([7]; rat heart): 2180 ng/mL
- 2 h/4 h Ratio ([7]; rat kidney concentration): 1.66
- concentration at 4 h ([7]; rat kidney): 29600 ng/mL
- concentration at 2 h ([7]; rat kidney): 49300 ng/mL
- 2 h/4 h Ratio ([7]; rat liver concentration): 0.99
- concentration at 4 h ([7]; rat liver): 10600 ng/mL
- concentration at 2 h ([7]; rat liver): 10600 ng/mL
- 2 h/4 h Ratio ([7]; rat lung concentration): 1.55
- concentration at 4 h ([7]; rat lung): 4180 ng/mL
- concentration at 2 h ([7]; rat lung): 6500 ng/mL
- 2 h/4 h Ratio ([7]; rat muscle concentration): 1.59
- concentration at 4 h ([7]; rat muscle): 2860 ng/mL
- concentration at 2 h ([7]; rat muscle): 4540 ng/mL
- 2 h/4 h Ratio ([7]; rat pancreas concentration): 1.34
- concentration at 4 h ([7]; rat pancreas): 4050 ng/mL
- concentration at 2 h ([7]; rat pancreas): 5400 ng/mL
- 2 h/4 h Ratio ([7]; rat spleen concentration): 1.35
- concentration at 4 h ([7]; rat spleen): 3710 ng/mL
- concentration at 2 h ([7]; rat spleen): 5010 ng/mL
- 2 h/4 h Ratio ([7]; rat testicles concentration): 2.04
- concentration at 4 h ([7]; rat testicles): 280 ng/mL
- concentration at 2 h ([7]; rat testicles): 580 ng/mL
- 2 h/4 h Ratio ([7]; rat thymus concentration): 1.23
- concentration at 4 h ([7]; rat thymus): 2760 ng/mL
- concentration at 2 h ([7]; rat thymus): 3410 ng/mL
- tissue levels and clearance from tissues after 2-hour IV infusion [7]: High levels

SMILES: NCCC[C@H](N)C(=O)N[C@H](CCc1ccccc1)C(=O)Nc1cnc2ccccc2c1 [Compound 3, 2-(S),5-Diamino-pentanoic acid [3-phenyl-1-(R)-(quinolin-3-ylcarbamoyl)-propyl]-amide]
- clearance [1]: 23.3 mL/min/kg
- stability in cultures of tested bacterial strains [2]: stable
- bacterial load in infected lungs, EPI with levofloxacin [3]: dose-dependent efficacy in levofloxacin potentiation
- stability after 18 hours of incubation with human serum [4]: stable
- bacterial load in thighs, EPI with levofloxacin versus levofloxacin alone [5]: potentiated levofloxacin in vivo
- decrease in ED50 of levofloxacin ([6]; increasing concentrations of EPI, dose-dependent): up to 4 fold
- 2 h/4 h Ratio ([7]; rat brain concentration): 0.35
- concentration at 4 h ([7]; rat brain): 210 ng/mL
- concentration at 2 h ([7]; rat brain): 70 ng/mL
- 2 h/4 h Ratio ([7]; rat heart concentration): 4.82
- concentration at 4 h ([7]; rat heart): 470 ng/mL
- concentration at 2 h ([7]; rat heart): 2260 ng/mL
- 2 h/4 h Ratio ([7]; rat kidney concentration): 7.28
- concentration at 4 h ([7]; rat kidney): 1680 ng/mL
- concentration at 2 h ([7]; rat kidney): 12200 ng/mL
- 2 h/4 h Ratio ([7]; rat liver concentration): 1.60
- concentration at 4 h ([7]; rat liver): 830 ng/mL
- concentration at 2 h ([7]; rat liver): 1330 ng/mL
- 2 h/4 h Ratio ([7]; rat lung concentration): 2.23
- concentration at 4 h ([7]; rat lung): 1910 ng/mL
- concentration at 2 h ([7]; rat lung): 4270 ng/mL
- 2 h/4 h Ratio ([7]; rat muscle concentration): 1.91
- concentration at 4 h ([7]; rat muscle): 1140 ng/mL
- concentration at 2 h ([7]; rat muscle): 2180 ng/mL
- 2 h/4 h Ratio ([7]; rat pancreas concentration): 2.91
- concentration at 4 h ([7]; rat pancreas): 380 ng/mL
- concentration at 2 h ([7]; rat pancreas): 1110 ng/mL
- 2 h/4 h Ratio ([7]; rat spleen concentration): 6.16
- concentration at 4 h ([7]; rat spleen): 720 ng/mL
- concentration at 2 h ([7]; rat spleen): 4410 ng/mL
- 2 h/4 h Ratio ([7]; rat testicles concentration): 5.14
- concentration at 4 h ([7]; rat testicles): 60 ng/mL
- concentration at 2 h ([7]; rat testicles): 320 ng/mL
- 2 h/4 h Ratio ([7]; rat thymus concentration): 1.69
- concentration at 4 h ([7]; rat thymus): 1460 ng/mL
- concentration at 2 h ([7]; rat thymus): 2460 ng/mL
- tissue levels and clearance from tissues after 2-hour IV infusion [7]: Lower levels

SMILES: NCCC[C@H](N)C(=O)N[C@H](Cc1ccc(C(F)(F)F)cc1)C(=O)Nc1cnc2ccccc2c1 [Compound 21, 2-(S),5-Diamino-pentanoic acid [1-(R)-(quinolin-3-ylcarbamoyl)-2-(4-trifluoromethyl-phenyl)-ethyl]amide]
- clearance [1]: 16.2 mL/min/kg
- bacterial load in thighs, EPI with levofloxacin versus levofloxacin alone [5]: significantly enhanced activity of levofloxacin
- 2 h/6 h Ratio ([7]; rat brain concentration): 16.37
- concentration at 4 h ([7]; rat brain): 470 ng/mL
- concentration at 6 h ([7]; rat brain): 30 ng/mL
- concentration at 2 h ([7]; rat brain): 490 ng/mL
- 2 h/6 h Ratio ([7]; rat heart concentration): 7.33
- concentration at 4 h ([7]; rat heart): 1760 ng/mL
- concentration at 6 h ([7]; rat heart): 720 ng/mL
- concentration at 2 h ([7]; rat heart): 5250 ng/mL
- 2 h/6 h Ratio ([7]; rat kidney concentration): 20.10
- concentration at 4 h ([7]; rat kidney): 20800 ng/mL
- concentration at 6 h ([7]; rat kidney): 2920 ng/mL
- concentration at 2 h ([7]; rat kidney): 58700 ng/mL
- 2 h/6 h Ratio ([7]; rat liver concentration): 30.21
- concentration at 4 h ([7]; rat liver): 2320 ng/mL
- concentration at 6 h ([7]; rat liver): 200 ng/mL
- concentration at 2 h ([7]; rat liver): 5950 ng/mL
- 2 h/6 h Ratio ([7]; rat lung concentration): 3.43
- concentration at 6 h ([7]; rat lung): 3900 ng/mL
- concentration at 2 h ([7]; rat lung): 13400 ng/mL
- 2 h/6 h Ratio ([7]; rat muscle concentration): 3.94
- concentration at 4 h ([7]; rat muscle): 1360 ng/mL
- concentration at 6 h ([7]; rat muscle): 1210 ng/mL
- concentration at 2 h ([7]; rat muscle): 4750 ng/mL
- 2 h/6 h Ratio ([7]; rat pancreas concentration): 20.73
- concentration at 4 h ([7]; rat pancreas): 1580 ng/mL
- concentration at 6 h ([7]; rat pancreas): 470 ng/mL
- concentration at 2 h ([7]; rat pancreas): 9710 ng/mL
- 2 h/6 h Ratio ([7]; rat spleen concentration): 3.46
- concentration at 4 h ([7]; rat spleen): 4440 ng/mL
- concentration at 6 h ([7]; rat spleen): 2210 ng/mL
- concentration at 2 h ([7]; rat spleen): 7660 ng/mL
- 2 h/6 h Ratio ([7]; rat testicles concentration): 8.32
- concentration at 4 h ([7]; rat testicles): 330 ng/mL
- concentration at 6 h ([7]; rat testicles): 80 ng/mL
- concentration at 2 h ([7]; rat testicles): 700 ng/mL
- 2 h/6 h Ratio ([7]; rat thymus concentration): 2.02
- concentration at 4 h ([7]; rat thymus): 6000 ng/mL
- concentration at 6 h ([7]; rat thymus): 3590 ng/mL
- concentration at 2 h ([7]; rat thymus): 7250 ng/mL
- tissue levels and clearance from tissues after 2-hour IV infusion [7]: Slower clearance
